Where two headings read alike, the source gives them in different places.
How the values were obtained:
human EP3 receptor = biological target: T1, human EP3 receptor (Homo sapiens, UniProt P43115); assay: Radioligand ([3H]PGE2) competition displacement binding, human EP3 receptor membranes; conditions: [3H]PGE2 displacement, read-out: pKi EP3 (converted)
T1 construct: expressed in transfected cells
T1 sequence (P43115 1-390): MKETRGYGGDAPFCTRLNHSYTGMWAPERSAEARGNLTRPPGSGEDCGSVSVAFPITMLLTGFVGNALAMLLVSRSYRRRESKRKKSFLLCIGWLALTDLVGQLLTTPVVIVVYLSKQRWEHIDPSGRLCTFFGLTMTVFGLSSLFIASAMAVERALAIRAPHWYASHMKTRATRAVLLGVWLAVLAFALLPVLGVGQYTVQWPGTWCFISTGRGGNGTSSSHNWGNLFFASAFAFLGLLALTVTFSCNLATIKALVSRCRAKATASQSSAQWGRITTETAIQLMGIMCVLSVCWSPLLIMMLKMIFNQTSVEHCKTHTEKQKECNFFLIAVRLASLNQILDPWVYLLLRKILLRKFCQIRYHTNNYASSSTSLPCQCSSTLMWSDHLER
Description: (§1) Membranes were prepared from cells stably transfected with human EP receptor cDNA. In brief, cells were cultured to confluency, scraped from culture flasks, and centrifuged (800 g, 8 minutes, 4° C.). Cells were twice washed in ice cold homogenisation buffer containing 10 mMTris-HCl, 1 mM EDTA.2Na, 250 mM sucrose, 1 mM PMSF, 0.3 mM indomethacin, pH 7.4, homogenised and re-centrifuged as before. The supernatant was stored on ice and pellets re-homogenised and re-spun. Supernatants were pooled and centrifuged at 40000 g, 10 minutes, 4° C. Resultant membrane pellets were stored at −80° C. until use.
(§2) For assay, membranes expressing human EP4, EP3, EP2 or EP1 receptors were incubated in Millipore (MHVBN45) plates containing assay buffer, radiolabelled [^3H]PGE2 and 0.1 to 10 000 nM concentrations of compounds. Incubations were performed at suitable temperatures and for suitable times to allow equilibrium to be reached. Non-specific binding was determined in the presence of 10 uM PGE2. Bound and free radiolabel was separated by vacuum manifold filtration using appropriate wash buffers, and bound radiolabel was determined by scintillation counting. Constituents of each of the buffers are included in table 4 below.
(§3) The affinity or pKi of each compound for each receptor was calculated from the concentration causing 50% radioligand displacement (IC50) using the Cheng-Prusoff equation: [formula]
(§4) This approach follows that set out in Kenakin, T. P., Pharmacologic analysis of drug receptor interaction. Raven Press, New York, 2nd edition.

human EP2 receptor [1] = biological target: T2, human EP2 receptor (Homo sapiens, UniProt P43116); assay: Radioligand ([3H]PGE2) competition displacement binding, human EP2 receptor membranes; conditions: human EP2 membranes, [3H]PGE2 displacement, Cheng-Prusoff; mean of 4 experiments; read-out: pKi EP2 (converted)
T2 construct: expressed in transfected cells; host or cells: HEK cells (HEK-EP2)
T2 sequence (P43116 whole entry): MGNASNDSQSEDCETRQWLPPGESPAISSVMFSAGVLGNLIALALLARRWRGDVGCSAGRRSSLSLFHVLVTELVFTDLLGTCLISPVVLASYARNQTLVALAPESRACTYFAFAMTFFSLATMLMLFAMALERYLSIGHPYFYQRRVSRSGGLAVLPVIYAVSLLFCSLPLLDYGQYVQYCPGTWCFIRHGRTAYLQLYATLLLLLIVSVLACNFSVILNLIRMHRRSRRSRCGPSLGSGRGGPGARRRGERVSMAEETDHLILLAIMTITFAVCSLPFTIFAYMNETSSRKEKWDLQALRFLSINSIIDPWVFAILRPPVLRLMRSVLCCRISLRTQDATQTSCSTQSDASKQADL
Description: as §1, §2, §3, §4

human EP2 receptor [2] = biological target: T2, human EP2 receptor; assay: cAMP production in HEK cells stably expressing the human EP2 receptor; type: cell-based; conditions: 15 min stimulation, 4 experiments, read-out: Mean EC50
Description: The following describes an in vitro assay to determine the effect of compounds on cyclase production, that is, to determine their functional efficacy at the EP2 receptor.
HEK cells stably expressing the human EP2 receptor were used for these assays. HEK-EP2 cells were cultured in 96-well, poly-L-lysine coated plates at a density of 50,000 cells/well, and grown to confluence in humidified […] at 37° C. Culture medium was DMEM supplemented with 10% foetal bovine serum, 100 U/ml penicillin, […], 2.5 µg/ml fungizone, 2 mM glutamine, 250 µg/ml geneticin and 200 µg/ml zeocin.
On reaching confluence, culture media was rinsed off using DMEM with no additions, before 175 µl assay buffer (DMEM containing 1 mM 3-isobutyl-1-methylxanthine and 3 µM indomethacin) was added to each well. This was allowed to incubate for 1 hr before the cells were stimulated with the test compounds (in triplicate) at final concentrations of 10^−9M to 10^−5M for 15 minutes. The assay was terminated by the addition of 25 µl 1M hydrochloric acid. Plates were then frozen for a minimum of 12 hours or until required for radioligand displacement assay.
Plates were thawed quickly at 37° C., and neutralised with 25 µl 1M sodium hydroxide. 30 µl of supernatant was transferred to 96-well Millipore (MAFNOB) plates coated with 0.1% Polyethylenimine. These supernatants were diluted by addition of 90[…]1 cAMP assay buffer (50 mM Tris, 5 mM EDTA, pH 7.0). A cAMP standard curve (10^−11M to 10^−5M) was constructed. 15 µl of 3′:5′-cAMP-dependent protein kinase (final concentration 8 µg/well), and 15 µl [^3H]-cAMP (final concentration 2 nM/well) were added to each well.
Plates were incubated on ice for 2 hours, before bound and free radiolabel were separated by vacuum filtration harvesting on the Millipore manifold, using ice cold water as the termination buffer. Filter plates were allowed to dry overnight, before addition of 50 µl Microscint. Radioactivity was determined using the Microbeta Trilux scintillation counter. cAMP accumulation was determined from the standard curve, and the values plotted as pmoles cAMP/well.

human EP4 receptor = biological target: T3, human EP4 receptor (Homo sapiens, UniProt P35408); assay: Radioligand ([3H]PGE2) competition displacement binding, human EP4 receptor membranes; conditions: [3H]PGE2 displacement, read-out: pKi EP4 (converted)
T3 construct: expressed in transfected cells
T3 sequence (P35408 whole entry): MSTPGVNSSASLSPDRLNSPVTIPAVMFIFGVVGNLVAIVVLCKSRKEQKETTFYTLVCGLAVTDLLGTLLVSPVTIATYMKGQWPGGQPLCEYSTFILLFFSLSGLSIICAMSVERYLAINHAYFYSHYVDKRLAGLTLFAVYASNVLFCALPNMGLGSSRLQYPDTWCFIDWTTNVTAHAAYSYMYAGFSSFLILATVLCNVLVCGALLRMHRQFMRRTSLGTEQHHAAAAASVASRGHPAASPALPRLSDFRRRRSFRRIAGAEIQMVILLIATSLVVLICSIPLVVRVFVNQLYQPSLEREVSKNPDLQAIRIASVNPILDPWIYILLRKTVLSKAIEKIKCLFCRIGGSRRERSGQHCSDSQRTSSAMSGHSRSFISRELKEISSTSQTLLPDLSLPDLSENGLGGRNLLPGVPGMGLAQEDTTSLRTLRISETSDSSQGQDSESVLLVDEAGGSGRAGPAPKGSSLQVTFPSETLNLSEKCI
Description: as §1, §2, §3, §4

[3] = test system: IL-2 production by OKT3 activated T cells; assay: Lymphocyte assay: IL-2 production by anti-CD3 (OKT3) stimulated T cells; type: cell-based, human; conditions: inhibition of IL-2 production, 24 h; for EC50: read-out: Mean EC50; for Mean Log (EC50): log scale
Description: (§5) Lymphocytes are mononuclear leukocytes, which participate in specific immune responses to foreign antigens and in the manifestation of auto-immune diseases. T lymphocytes produce IL-2, a key factor for lymphocyte activation and proliferation, in response to antigen stimulation via the CD3-T cell receptor complex and the pathway involved in this response is the NF-AT. […] A lymphocyte assay was designed to model this response and to determine the effect of test compound on IL-2 production by anti-CD3-stimulated T cells isolated from peripheral blood. This assay uses a sub-optimal dose of an anti-CD3 monoclonal antibody (OKT3, 25 ng/ml) immobilised to a 96-well plate to stimulate a T cell response. The level of IL-2 released into the cell culture supernatants was quantified using a standard sandwich ELISA. Similarly, other cytokines such as TNFα and IFN-γ can also be measured in the same assay.
(§6) Human peripheral blood mononuclear cells from healthy volunteers were isolated from whole blood by Ficoll-Hypaque density centrifugation and adherence to plastic. The non-adherent lymphocyte fraction was used to set up the lymphocyte assay and the adherent monocytes were then recovered by scraping and subsequently used in the monocyte assay.
(§7) Lymphocytes were then seeded to a 96-well plate pre-coated with anti-CD3 monoclonal antibody (OKT3) at 25 ng/ml and immediately, the test compounds (Peak 1, mixture 1 acid; Peak 1, mixture 2 acid; AH-13205 racemate; PGE2) in appropriate dilutions were added to corresponding wells according to the experimental design. The plate was incubated for 24 hours at 37° C. with 5% CO2 in air and supernatants were recovered for ELISA analysis at the end of incubation period. The levels of IFN-γ was assessed by using the ProteoPlex 16 well human cytokine array assay kit according to the manufacturer's instruction.

[4] = test system: TNFα production by alveolar macrophages; assay: Alveolar macrophage assay: LPS-induced TNFα release; type: cell-based, human; conditions: inhibition of TNFα production, LPS 1 μg/ml, 24 h, mean of three donors
Description: Human lung parenchyma was cut into small pieces and perfused with ice-cold phosphate buffered saline (PBS) to remove contaminating blood and mucus. The tissues were then chopped with scissors in the presence of Minimum Essential Medium supplemented with penicillin, streptomycin, L-glutamine and DNase (0.25 mg/ml). The chopped tissues were shaken gently to dislodge the macrophages. A crude cell suspension was then obtained by the removal of the tissues with a sterile filter (150 μm pore size). The resulting cell suspension was spun and the cell pellet collected. Contaminating red blood cells were depleted with a red blood cell lysis buffer and the remaining cells washed twice with PBS by centrifugation. Alveolar macrophages were then purified from this cell preparation by using a positive selection method for CD14-molecule bearing cells using a VarioMac™ Separator and respective positive selection reagents and columns supplied by Miltenyi Biotec Ltd according to the manufacturer's instruction.
For the assay, alveolar macrophages were resuspended in complete culture medium consisting of RPMI1640 supplemented with 10% foetal calf serum, L-glutamine and antibiotics. The cells were then plated into 24 well plates (4×10^5 cell/well) and incubated overnight at 37° C. with 5% CO2 in air to allow cell adherence. The exhausted medium was then removed from the plates and the plates rinsed briefly with fresh medium before the addition of test compound solutions. The test compounds were incubated with the cells for 30 minutes before the addition of E. Coli LPS (1 μg/ml). The assay plates were incubated in a humidified incubator at 37° C. with 5% CO2 in air for 24 hours. The release of TNFα by the cells into the culture supernatants was quantified using an ELISA kit (DuoSet® human TNFα ELSIA Development System) supplied by R+D Systems (Europe) according to the manufacturer's instruction. Indomethacin at 3 μM was included in all treatments to inhibit the possible release of endogenous prostaglandin E2.

[5] = test system: TNFα production by lymphocytes; assay: Lymphocyte assay: TNFα production; type: cell-based, human; conditions: inhibition of TNFα production by lymphocytes, mean of three donors; for EC50: read-out: Mean EC50; for Mean Log (EC50): log scale
Description: as §5, §6, §7

lymphocyte proliferation = assay: Lymphocyte proliferation driven by immobilised anti-CD3 antibody; type: cell-based, human; conditions: inhibition of lymphocyte proliferation, 72 h, mean of three donors; for EC50: read-out: Mean EC50; for Mean Log (EC50): log scale
Description: as §5, §6
For the measurement of lymphocyte proliferation driven by immobilised anti-CD3 monoclonal antibody, the assay was set up in the same way as for the measurement of IL-2 release, except that the cells were cultured for 72 hours in the presence or absence of test compounds. Four hours prior to the termination of the proliferation assay, a novel tetrazolium compound solution supplied by Promega in the format of Cell Proliferation Assay Kit was added to individual wells according to the manufacturer's instruction. The plate was then placed back in the incubator for the remaining 4 hours and the […] reaction was measured using a spectrophotometer at an absorbent wavelength of 490 nm (SpectraMax, Molecular Devices) according to the manufacturer's instruction.

[6] = test system: human myometrial smooth muscle; assay: Human myometrial activity: inhibition of electrical field stimulation (EFS) induced contractions; type: cell-based; conditions: at 10^-4M, n=7 donors
Description: The following describes an in vitro functional assay, using human myometrial smooth muscle, to determine the affinity of the test compounds at the EP2 receptor in human tissues.
Sections of human myometrium were prepared from samples of surgically removed uterus longitudinal myometrial muscle strips (2 mm wide by 10 mm long) were then cut and suspended between stainless steel hooks in organ chambers containing oxygenated (95% O2/5% CO2) Krebs solution at 37° C. The composition of the Krebs solution was as follows: NaCl (118.2 mM), KCl (4.69 mM), MgSO4.7H2O (1.18 mM), KH2PO4 (1.19 mM), glucose (11.1 mM), NaHCO3 (25.0 mM), CaCl2.6H2O (2.5 mM), indomethacin 3×10^−6M.
Tissues were placed under a tension equivalent to 25 mN and left overnight at room temperature. The following day the tissues were maintained at 37° C., washed and placed under a tension of 15 mN then allowed to equilibrate for a period of at least 30 minutes. Responses were recorded using isometric transducers coupled to an Apple Macintosh computer via a MacLab interface. After 60 minutes, the muscle sections of the human myometrium were stimulated electrically (15 ms pulse width, for 10 s every 100 s at 15V and 0.5-40 Hz) using parallel platinum wire electrodes and a Multistim D330 pulse stimulator. Upon electrical stimulation, the strips of human myometrial smooth muscle responded with a rapid contraction. Once the response to electrical stimulation had stabilised (stimulated responses differed by no more than 10%), the strips were exposed to increasing concentrations of test compounds (1×10^−7 to 1×10^−4M, incubated for at least 15 minutes at each concentration). At the end of the experiment, application of sodium nitroprusside (SNP, a nitric oxide donor that causes smooth muscle relaxation) (1×10^−4M) was used to produce a standard relaxatory response. To determine the affinity of the compounds, the concentration of test compound required to produce half-maximal effects (EC50) was calculated, as was the maximum response (calculated as a percentage of the standard response produced with SNP).

[7] = mean of four donors (FIG. 9, table 7)
[8] = mean of three to five donors (FIG. 10, table 8)

Molecule	Ki (human EP3 receptor) [nM]	Ki (human EP2 receptor [1]) [nM]	EC50 (human EP2 receptor [2]) [nM]	Ki (human EP4 receptor) [nM]	EC50 [3, 8] [nM]	Mean Log (EC50) [3, 8]	EC50 [5] [nM]	Mean Log (EC50) [5]	EC50 (lymphocyte proliferation) [nM]	Mean Log (EC50) (lymphocyte proliferation)	other results
CCCCC[C@H](O)/C=C/[C@H]1[C@H](O)CC(=O)[C@@H]1C/C=C\CCCC(=O)O [PGE2, prostaglandin E2]	–	–	–	–	21.1	−7.677	10.7	−7.971	25.8	−7.589	EC50 [3, 7]: 28 nM; Mean Log (EC50) [3, 7]: −7.554; EC50 ([4]; read-out: Mean EC50): 125 nM; Mean Log (EC50) ([4]; log scale): −6.904
CC(C)(C)NCC(O)c1cc(O)cc(O)c1 (stereo not shown) [terbutaline, reference compound]	–	–	–	–	–	–	–	–	–	–	% of the control EFS-induced contraction [6]: 98±5%
butaprost	–	–	–	–	124	−6.906	292	−6.535	996	−6.015	–

The next lines start with results.

Ki (human EP3 receptor) [nM]	Ki (human EP2 receptor [1]) [nM]	EC50 (human EP2 receptor [2]) [nM]	Ki (human EP4 receptor) [nM]	EC50 [3, 8] [nM]	Mean Log (EC50) [3, 8]	EC50 [5] [nM]	Mean Log (EC50) [5]	Molecule	EC50 (lymphocyte proliferation) [nM]	Mean Log (EC50) (lymphocyte proliferation)	other results
15800	1580	323	31600	–	–	–	–	CCCCC[C@H](O)c1ccc([C@@H]2CCC(=O)[C@H]2CCCCCCC(=O)O)cc1 (single isomer, unassigned) [Peak 2, Mixture 1 acid]	–	–	–
20000	501	407	15800	–	–	–	–	CCCCC[C@@H](O)c1ccc([C@@H]2CCC(=O)[C@H]2CCCCCCC(=O)O)cc1 (single isomer, unassigned) [Peak 2, Mixture 2 acid]	–	–	–

Source: US20050209336A1, “EP2 receptor agonists” (priority 2003, published 2005)
